{
  "source": "paper PMC11191317",
  "about": "“PNSC928, a plant-derived compound, specifically disrupts CtBP2-p300 interaction and reduces inflammation in mice with acute respiratory distress syndrome” (Biology Direct, 2024)",
  "key": {"[1]": {"molecular_target": "T1, CtBP2-p300^BRD interaction (Mus musculus, UniProt B2RWS6+P56546)", "T1 construct": "R1 (1-1000 amino acids, aa), R2 (1001–1201 aa), R3 (1202–1810 aa); made in house; host or cells: E. coli BL21", "T1 sequence (B2RWS6 1001-1201 limits assumed)": "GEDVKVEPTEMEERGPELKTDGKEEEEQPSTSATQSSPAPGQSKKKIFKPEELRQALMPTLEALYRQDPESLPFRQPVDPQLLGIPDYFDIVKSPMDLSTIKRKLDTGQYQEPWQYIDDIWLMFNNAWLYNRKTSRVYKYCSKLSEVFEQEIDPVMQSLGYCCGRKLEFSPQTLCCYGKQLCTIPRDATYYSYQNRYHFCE", "T1 sequence (P56546 whole entry, the tested form may be a part)": "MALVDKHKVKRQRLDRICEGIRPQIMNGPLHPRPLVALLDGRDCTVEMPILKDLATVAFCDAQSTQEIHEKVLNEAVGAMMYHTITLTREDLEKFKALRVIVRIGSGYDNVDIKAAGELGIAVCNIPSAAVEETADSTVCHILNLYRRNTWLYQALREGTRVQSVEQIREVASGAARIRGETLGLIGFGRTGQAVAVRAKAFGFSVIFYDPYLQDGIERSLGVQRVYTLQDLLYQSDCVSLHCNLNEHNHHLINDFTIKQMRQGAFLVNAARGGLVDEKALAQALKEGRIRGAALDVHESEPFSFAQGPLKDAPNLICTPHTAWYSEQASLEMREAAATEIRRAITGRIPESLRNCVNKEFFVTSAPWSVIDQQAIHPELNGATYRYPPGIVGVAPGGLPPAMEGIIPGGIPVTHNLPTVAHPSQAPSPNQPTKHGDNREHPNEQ", "experiment": "AlphaScreen of GST-p300^BRD and His-CtBP2 interaction", "assay_type": "binding", "method": "Plasmids pGEX-6P-1-p300^BRD and pET-28a-CtBP2 (Table S2) were transformed into BL21 competent cells. Upon 1 mM isopropyl β-d-1-thiogalactopyranoside (IPTG) induction, GST-p300BRD and His-CtBP2 proteins were isolated via Glutathione Agarose Beads (Thermo Fisher; #16,100) and Ni-NTA Agarose (Thermo Fisher; #R90115), respectively. A comprehensive small molecule library of 4313 compounds derived from various botanical sources, including Lonicera japonica, Forsythia suspense, Houttuynia cordata, Coptis chinensis, Phellodendron, Pulsatilla chinensis, Lygodium japonicum, Plantago asiatica, and Portulaca olerace, was analyzed through mass spectrometry. […] Post addition of 5 µM from each botanical molecule and a 2-hour incubation at 25 °C, the resultant AlphaScreen signals from 96-well plates (PerkinElmer, #6,008,350) were deciphered with an Envision Multilabel Reader (PerkinElmer, #2105-0010).\n(§1) To probe this interaction, we established an AlphaScreen system that utilized GST-p300^BRD and His-CtBP2, binding to donor and acceptor beads, respectively (Fig. 4C). […] In vitro assays assessed the effects of PNSC928 on the CtBP2-p300^BRD interaction. […] Furthermore, we assessed the impact of combined LPS and PNSC928 treatment on the expression of key molecules in the NF-κB signaling pathway."}, "CtBP2-p300 interaction": {"molecular_target": "T2, CtBP2-p300 interaction (Mus musculus, UniProt B2RWS6+P56546)", "T2 construct": "In vivo immunoprecipitation with anti-CtBP2-coated protein G beads in MPAEpiC cells; endogenous in cells; host or cells: MPAEpiC (mouse pulmonary alveolar epithelial cells)", "T2 sequence (P56546 whole entry)": "as the sequence (P56546 whole entry, the tested form may be a part) above", "T2 sequence (B2RWS6 whole entry)": "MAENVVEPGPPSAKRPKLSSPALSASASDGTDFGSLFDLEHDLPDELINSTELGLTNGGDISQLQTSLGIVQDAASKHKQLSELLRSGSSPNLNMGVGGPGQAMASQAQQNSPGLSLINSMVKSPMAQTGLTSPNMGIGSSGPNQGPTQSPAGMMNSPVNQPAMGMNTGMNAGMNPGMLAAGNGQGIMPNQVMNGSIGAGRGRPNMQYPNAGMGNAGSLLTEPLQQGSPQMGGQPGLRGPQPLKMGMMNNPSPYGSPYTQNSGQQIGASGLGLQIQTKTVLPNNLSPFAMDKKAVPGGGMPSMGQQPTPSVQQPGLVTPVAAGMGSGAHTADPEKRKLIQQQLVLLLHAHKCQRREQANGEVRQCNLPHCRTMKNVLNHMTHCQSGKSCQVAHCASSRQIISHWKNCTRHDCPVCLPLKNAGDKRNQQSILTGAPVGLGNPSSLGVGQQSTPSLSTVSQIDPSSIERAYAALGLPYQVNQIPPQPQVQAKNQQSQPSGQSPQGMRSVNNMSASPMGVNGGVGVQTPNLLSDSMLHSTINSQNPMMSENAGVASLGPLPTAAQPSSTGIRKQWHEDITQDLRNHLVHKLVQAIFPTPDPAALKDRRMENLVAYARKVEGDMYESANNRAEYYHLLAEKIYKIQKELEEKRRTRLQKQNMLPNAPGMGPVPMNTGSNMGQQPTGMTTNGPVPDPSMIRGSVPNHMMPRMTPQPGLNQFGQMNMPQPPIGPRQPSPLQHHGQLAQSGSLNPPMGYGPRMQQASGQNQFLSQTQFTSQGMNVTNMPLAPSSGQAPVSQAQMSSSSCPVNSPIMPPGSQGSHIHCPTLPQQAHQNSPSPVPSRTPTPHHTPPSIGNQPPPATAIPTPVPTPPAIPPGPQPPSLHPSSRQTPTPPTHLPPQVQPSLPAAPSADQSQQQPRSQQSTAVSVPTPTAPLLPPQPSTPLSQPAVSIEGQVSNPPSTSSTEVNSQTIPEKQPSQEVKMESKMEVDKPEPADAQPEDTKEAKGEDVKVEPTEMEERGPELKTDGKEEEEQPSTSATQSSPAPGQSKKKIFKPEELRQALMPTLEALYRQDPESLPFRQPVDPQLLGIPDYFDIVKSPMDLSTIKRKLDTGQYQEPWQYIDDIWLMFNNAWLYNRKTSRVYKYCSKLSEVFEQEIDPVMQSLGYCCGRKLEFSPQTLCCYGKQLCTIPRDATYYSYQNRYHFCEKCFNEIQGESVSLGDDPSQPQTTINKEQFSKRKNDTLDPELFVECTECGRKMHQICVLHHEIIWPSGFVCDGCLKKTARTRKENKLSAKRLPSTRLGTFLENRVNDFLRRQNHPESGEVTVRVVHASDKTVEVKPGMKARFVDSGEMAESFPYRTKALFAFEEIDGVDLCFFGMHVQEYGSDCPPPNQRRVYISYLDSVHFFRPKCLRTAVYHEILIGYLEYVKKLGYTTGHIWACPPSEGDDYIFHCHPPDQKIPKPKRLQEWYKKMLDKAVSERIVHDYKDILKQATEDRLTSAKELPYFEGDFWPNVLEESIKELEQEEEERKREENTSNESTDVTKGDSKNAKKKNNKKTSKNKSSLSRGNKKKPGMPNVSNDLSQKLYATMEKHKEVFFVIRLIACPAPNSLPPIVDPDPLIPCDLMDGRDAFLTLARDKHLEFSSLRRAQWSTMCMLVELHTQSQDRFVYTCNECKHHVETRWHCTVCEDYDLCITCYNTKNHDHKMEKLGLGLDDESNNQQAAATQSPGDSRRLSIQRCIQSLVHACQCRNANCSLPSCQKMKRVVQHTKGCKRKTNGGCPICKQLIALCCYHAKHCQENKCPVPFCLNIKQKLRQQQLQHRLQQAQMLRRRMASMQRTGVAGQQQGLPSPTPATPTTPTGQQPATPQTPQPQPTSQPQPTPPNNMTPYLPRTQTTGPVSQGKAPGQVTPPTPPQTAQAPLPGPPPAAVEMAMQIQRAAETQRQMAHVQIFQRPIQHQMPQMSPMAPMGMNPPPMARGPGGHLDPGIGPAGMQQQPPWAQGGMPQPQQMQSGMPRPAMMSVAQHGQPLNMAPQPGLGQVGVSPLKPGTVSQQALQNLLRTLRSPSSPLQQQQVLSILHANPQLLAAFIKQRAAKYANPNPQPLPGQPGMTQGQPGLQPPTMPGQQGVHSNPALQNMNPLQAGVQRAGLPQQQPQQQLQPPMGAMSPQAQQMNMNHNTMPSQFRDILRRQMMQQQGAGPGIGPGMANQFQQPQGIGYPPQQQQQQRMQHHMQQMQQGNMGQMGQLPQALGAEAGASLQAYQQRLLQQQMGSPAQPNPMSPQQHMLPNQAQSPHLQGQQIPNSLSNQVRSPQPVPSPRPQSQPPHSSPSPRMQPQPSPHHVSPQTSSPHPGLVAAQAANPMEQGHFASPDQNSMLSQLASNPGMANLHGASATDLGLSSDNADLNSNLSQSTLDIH", "experiment": "Immunoprecipitation with anti-CtBP2 in MPAEpiC cells co-treated with LPS and PNSC928", "assay_type": "cell-based", "details": "LPS + PNSC928 0, 11.8, 23.6, and 47.2 µM, 6 h", "method": "For LPS treatment, different knockdown (KD) cell lines—Control^KD, CtBP2^KD, p300^KD, and p65^KD, all derived from MPAEpiC—were seeded in 12-well plates and cultured at 37 °C until reaching 80% confluence. The cells were then treated with 200 ng/mL of LPS for 6 h, washed three times with PBS, and subjected to the required experiments. For experiments involving inhibitors of CtBP2, p300, and NF-κB, as well as the compound PNSC928, MPAEpiC, RAW264.7, FL83B, TKPTS, and HL-1 cells were seeded in 12-well plates and cultured at 37 °C to reach 80% confluence. Cells were then cotreated with 200 ng/mL LPS along with varying concentrations of the following chemicals: MTOB (0, 5, 10, or 20 mM), NSC95397 (0, 10, 20, or 40 µM), C646 (0, 3, 6, or 12 µM), A-485 (0, 5, 10, or 20 nM), TPCA1 (0, 150, 300, or 600 nM), BOT64 (0, 1, 2, or 4 µM), or PNSC928 (0, 11.8, 23.6, or 47.2 µM). After 6 h of treatment, cells were washed three times with PBS before proceeding with further experiments. […]\nas §1"}},
  "data": [
    {"compound": "CC(=CCCC1=CCC(C2COC(=O)C2)OC1O)CCC1=C(C)CCCC1(C)C", "note": "(stereo not drawn) [PNSC928]", "values": [
      {"measurement": "Alpha signal", "setting": "[1]; high-throughput screening, 5 µM compound, signal reduced from 17,500", "result": 489},
      {"measurement": "IC50", "setting": "[1]; read-out: IC50 disrupting CtBP2-p300^BRD interaction", "result": "23.6 ± 3.1", "unit": "µM"},
      {"measurement": "p300^BRD levels pulled down by CtBP2", "setting": "CtBP2-p300 interaction", "result": "dose-dependent decrease"}
    ]}
  ]
}
